Reference: patent US12338237B2, “Derivatives having 1,2,3,4-tetrahydronaphthalene moiety or pharmaceutically acceptable salt thereof and pharmaceutical compositions comprising the same” (YUHAN CORPORATION, priority 2019, dated 2025)
Where two headings read alike, the source gives them in different places.

Tests used:
[1] = target: glucosylceramide synthase (GCS) (Homo sapiens (Human), UniProt Q16739); test: Evaluation of inhibitory activities against GCS (enzyme reaction with A549 cell lysate, NBD C6-ceramide, HPLC fluorescence); type: biochemical; details: GCS activity in A549 cell lysate, 37° C. for 90 minutes
Outline: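 Lysate of A549 cells in 50 mM HEPES pH 7.3 incubated with test compound and NBD C6-ceramide at 37 °C for 90 min; lipids extracted with chloroform/methanol and GlcCer and ceramide peaks quantified by HPLC fluorescence. Activity from GlcCer area fraction, normalised between DMSO and ibiglustat controls.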

GM1 production = test: cells; type: cell-based

Sequence of glucosylceramide synthase (GCS) (Q16739 whole entry, looked up): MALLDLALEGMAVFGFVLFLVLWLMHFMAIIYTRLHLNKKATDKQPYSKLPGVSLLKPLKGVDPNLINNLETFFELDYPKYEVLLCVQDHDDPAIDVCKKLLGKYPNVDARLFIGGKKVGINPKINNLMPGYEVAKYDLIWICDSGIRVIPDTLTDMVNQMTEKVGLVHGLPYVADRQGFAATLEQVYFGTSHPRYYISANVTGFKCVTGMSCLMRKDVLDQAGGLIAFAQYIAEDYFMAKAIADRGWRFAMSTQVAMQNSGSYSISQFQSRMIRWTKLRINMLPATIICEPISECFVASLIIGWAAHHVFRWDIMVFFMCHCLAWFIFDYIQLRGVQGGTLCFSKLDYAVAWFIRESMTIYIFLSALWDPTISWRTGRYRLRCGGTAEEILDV

Cc1ccc(-c2ccc3c(c2)CCC(C)(C)C3NC(=O)O[C@@H]2CN3CCC2CC3)cc1 (stereo partly drawn) [Example 98, (S)-quinuclidin-3-yl (2,2-dimethyl-6-(p-tolyl)-1,2,3,4-tetrahydronaphthalen-1-yl)carbamate]
IC50 [1]: 1.7 nM
IC50 (GM1 production; Homo sapiens, Jurkat, 72 h): 2.05 nM

CC1(C)CCc2cc(-c3ccc(OC(F)F)cc3)ccc2C1NC(=O)O[C@@H]1CN2CCC1CC2 (stereo partly drawn) [Example 99, (S)-quinuclidin-3-yl (6-(4-(difluoromethoxy)phenyl)-2,2-dimethyl-1,2,3,4-tetrahydronaphthalen-1-yl)carbamate]
IC50 [1]: 1.65 nM
IC50 (GM1 production; Homo sapiens, Jurkat, 72 h): 2.56 nM

CC1(C)CCc2cc(-c3ccc(F)c(F)c3)ccc2C1NC(=O)O[C@@H]1CN2CCC1CC2 (stereo partly drawn) [Example 100, (S)-quinuclidin-3-yl (6-(3,4-difluorophenyl)-2,2-dimethyl-1,2,3,4-tetrahydronaphthalen-1-yl)carbamate]
IC50 [1]: 1.78 nM
IC50 (GM1 production; Homo sapiens, Jurkat, 72 h): 2.59 nM

CC1(C)CCc2cc(-c3ccc(F)cc3F)ccc2C1NC(=O)O[C@@H]1CN2CCC1CC2 (stereo partly drawn) [Example 101, (S)-quinuclidin-3-yl (6-(2,4-difluorophenyl)-2,2-dimethyl-1,2,3,4-tetrahydronaphthalen-1-yl)carbamate]
IC50 [1]: 1.59 nM
IC50 (GM1 production; Homo sapiens, Jurkat, 72 h): 2.55 nM

CC1(C)CCc2cc(-c3cc(F)ccc3F)ccc2C1NC(=O)O[C@@H]1CN2CCC1CC2 (stereo partly drawn) [Example 103, (S)-quinuclidin-3-yl (6-(2,5-difluorophenyl)-2,2-dimethyl-1,2,3,4-tetrahydronaphthalen-1-yl)carbamate]
IC50 [1]: 0.95 nM
IC50 (GM1 production; Homo sapiens, Jurkat, 72 h): 0.997 nM

CC1(C)CCc2cc(-c3cc(F)cc(F)c3)ccc2C1NC(=O)O[C@@H]1CN2CCC1CC2 (stereo partly drawn) [Example 104, (S)-quinuclidin-3-yl (6-(3,5-difluorophenyl)-2,2-dimethyl-1,2,3,4-tetrahydronaphthalen-1-yl)carbamate]
IC50 [1]: 2.25 nM
IC50 (GM1 production; Homo sapiens, Jurkat, 72 h): 2.27 nM

CC1(C)CCc2cc(-c3cc(Cl)ccc3Cl)ccc2C1NC(=O)O[C@@H]1CN2CCC1CC2 (stereo partly drawn) [Example 105, (S)-quinuclidin-3-yl (6-(2,5-dichlorophenyl)-2,2-dimethyl-1,2,3,4-tetrahydronaphthalen-1-yl)carbamate]
IC50 [1]: 1.39 nM
IC50 (GM1 production; Homo sapiens, Jurkat, 72 h): 0.21 nM

CC1(C)CCc2cc(-c3ccc(Cl)c(Cl)c3)ccc2C1NC(=O)O[C@@H]1CN2CCC1CC2 (stereo partly drawn) [Example 106, (S)-quinuclidin-3-yl (6-(3,4-dichlorophenyl)-2,2-dimethyl-1,2,3,4-tetrahydronaphthalen-1-yl)carbamate]
IC50 [1]: 4.05 nM
IC50 (GM1 production; Homo sapiens, Jurkat, 72 h): 3.33 nM

CC1(C)CCc2cc(-c3cc(Cl)cc(Cl)c3)ccc2C1NC(=O)O[C@@H]1CN2CCC1CC2 (stereo partly drawn) [Example 107, (S)-quinuclidin-3-yl (6-(3,5-dichlorophenyl)-2,2-dimethyl-1,2,3,4-tetrahydronaphthalen-1-yl)carbamate]
IC50 [1]: 5.86 nM
IC50 (GM1 production; Homo sapiens, Jurkat, 72 h): 6.5 nM

CC1(C)CCc2cc(-c3cc(F)c(F)cc3F)ccc2C1NC(=O)O[C@@H]1CN2CCC1CC2 (stereo partly drawn) [Example 108, (S)-quinuclidin-3-yl (2,2-dimethyl-6-(2,4,5-trifluorophenyl)-1,2,3,4-tetrahydronaphthalen-1-yl)carbamate]
IC50 [1]: 2.55 nM
IC50 (GM1 production; Homo sapiens, Jurkat, 72 h): 6.7 nM

CC1(C)CCc2cc(-c3ccc(F)c(F)c3F)ccc2C1NC(=O)O[C@@H]1CN2CCC1CC2 (stereo partly drawn) [Example 109, (S)-quinuclidin-3-yl (2,2-dimethyl-6-(2,3,4-trifluorophenyl)-1,2,3,4-tetrahydronaphthalen-1-yl)carbamate]
IC50 [1]: 2.89 nM
IC50 (GM1 production; Homo sapiens, Jurkat, 72 h): 2.97 nM

COCCOc1ccc(-c2ccc3c(c2)CCC(C)(C)C3NC(=O)O[C@@H]2CN3CCC2CC3)cc1 (stereo partly drawn) [Example 110, (S)-quinuclidin-3-yl (6-(4-(2-methoxyethoxy)phenyl)-2,2-dimethyl-1,2,3,4-tetrahydronaphthalen-1-yl)carbamate]
IC50 [1]: 0.64 nM
IC50 (GM1 production; Homo sapiens, Jurkat, 72 h): 0.29 nM

COCCOc1cccc(-c2ccc3c(c2)CCC(C)(C)C3NC(=O)O[C@@H]2CN3CCC2CC3)c1 (stereo partly drawn) [Example 111, (S)-quinuclidin-3-yl (6-(3-(2-methoxyethoxy)phenyl)-2,2-dimethyl-1,2,3,4-tetrahydronaphthalen-1-yl)carbamate]
IC50 [1]: 2.36 nM
IC50 (GM1 production; Homo sapiens, Jurkat, 72 h): 1.84 nM

COCCOc1ccccc1-c1ccc2c(c1)CCC(C)(C)C2NC(=O)O[C@@H]1CN2CCC1CC2 (stereo partly drawn) [Example 112, (S)-quinuclidin-3-yl (6-(2-(2-methoxyethoxy)phenyl)-2,2-dimethyl-1,2,3,4-tetrahydronaphthalen-1-yl)carbamate]
IC50 [1]: 3.75 nM
IC50 (GM1 production; Homo sapiens, Jurkat, 72 h): 0.802 nM

COCOc1ccc(-c2ccc3c(c2)CCC(C)(C)C3NC(=O)O[C@@H]2CN3CCC2CC3)cc1 (stereo partly drawn) [Example 113, (S)-quinuclidin-3-yl (6-(4-(methoxymethoxy)phenyl)-2,2-dimethyl-1,2,3,4-tetrahydronaphthalen-1-yl)carbamate]
IC50 [1]: 0.94 nM
IC50 (GM1 production; Homo sapiens, Jurkat, 72 h): 0.964 nM

COCOc1cccc(-c2ccc3c(c2)CCC(C)(C)C3NC(=O)O[C@@H]2CN3CCC2CC3)c1 (stereo partly drawn) [Example 114, (S)-quinuclidin-3-yl (6-(3-(methoxymethoxy)phenyl)-2,2-dimethyl-1,2,3,4-tetrahydronaphthalen-1-yl)carbamate]
IC50 [1]: 1.8 nM
IC50 (GM1 production; Homo sapiens, Jurkat, 72 h): 1.27 nM

COCOc1ccccc1-c1ccc2c(c1)CCC(C)(C)C2NC(=O)O[C@@H]1CN2CCC1CC2 (stereo partly drawn) [Example 115, (S)-quinuclidin-3-yl (6-(2-(methoxymethoxy)phenyl)-2,2-dimethyl-1,2,3,4-tetrahydronaphthalen-1-yl)carbamate]
IC50 [1]: 1.17 nM
IC50 (GM1 production; Homo sapiens, Jurkat, 72 h): 0.56 nM

COc1cc(-c2ccc3c(c2)CCC(C)(C)C3NC(=O)O[C@@H]2CN3CCC2CC3)ccn1 (stereo partly drawn) [Example 116, (S)-quinuclidin-3-yl (6-(2-methoxypyridin-4-yl)-2,2-dimethyl-1,2,3,4-tetrahydronaphthalen-1-yl)carbamate]
IC50 [1]: 8.62 nM
IC50 (GM1 production; Homo sapiens, Jurkat, 72 h): 7.76 nM

Cc1cc(-c2ccc3c(c2)CCC(C)(C)C3NC(=O)O[C@@H]2CN3CCC2CC3)ccn1 (stereo partly drawn) [Example 117, (S)-quinuclidin-3-yl (2,2-dimethyl-6-(2-methylpyridin-4-yl)-1,2,3,4-tetrahydronaphthalen-1-yl)carbamate]
IC50 [1]: 30.3 nM
IC50 (GM1 production; Homo sapiens, Jurkat, 72 h): 37.8 nM

CC1(C)CCc2cc(-c3ccnc(F)c3)ccc2C1NC(=O)O[C@@H]1CN2CCC1CC2 (stereo partly drawn) [Example 118, (S)-quinuclidin-3-yl (6-(2-fluoropyridin-4-yl)-2,2-dimethyl-1,2,3,4-tetrahydronaphthalen-1-yl)carbamate]
IC50 [1]: 17 nM
IC50 (GM1 production; Homo sapiens, Jurkat, 72 h): 12.4 nM

CC1(C)CCc2cc(-c3ccnc(C(F)(F)F)c3)ccc2C1NC(=O)O[C@@H]1CN2CCC1CC2 (stereo partly drawn) [Example 119, (S)-quinuclidin-3-yl (2,2-dimethyl-6-(2-(trifluoromethyl)pyridin-4-yl)-1,2,3,4-tetrahydronaphthalen-1-yl) carbamate]
IC50 [1]: 11.2 nM
IC50 (GM1 production; read-out: IC50): 1.86 nM

COc1ccc(-c2ccc3c(c2)CCC(C)(C)C3NC(=O)O[C@@H]2CN3CCC2CC3)cc1 (stereo partly drawn) [Example 120, (S)-quinuclidin-3-yl (6-(4-methoxyphenyl)-2,2-dimethyl-1,2,3,4-tetrahydronaphthalen-1-yl)carbamate]
IC50 [1]: 5.65 nM
IC50 (GM1 production; Homo sapiens, Jurkat, 72 h): 1.83 nM

COc1cccc(-c2ccc3c(c2)CCC(C)(C)C3NC(=O)O[C@@H]2CN3CCC2CC3)c1 (stereo partly drawn) [Example 121, (S)-quinuclidin-3-yl (6-(3-methoxyphenyl)-2,2-dimethyl-1,2,3,4-tetrahydronaphthalen-1-yl)carbamate]
IC50 [1]: 5.51 nM
IC50 (GM1 production; Homo sapiens, Jurkat, 72 h): 0.0387 nM

CCOc1cccc(-c2ccc3c(c2)CCC(C)(C)C3NC(=O)O[C@@H]2CN3CCC2CC3)c1 (stereo partly drawn) [Example 122, (S)-quinuclidin-3-yl (6-(3-ethoxyphenyl)-2,2-dimethyl-1,2,3,4-tetrahydronaphthalen-1-yl)carbamate]
IC50 [1]: 3.38 nM
IC50 (GM1 production; Homo sapiens, Jurkat, 72 h): 0.774 nM

COc1ccc(-c2ccc3c(c2)CCC(C)(C)C3NC(=O)O[C@@H]2CN3CCC2CC3)c(Cl)c1 (stereo partly drawn) [Example 123, (S)-quinuclidin-3-yl (6-(2-chloro-4-methoxyphenyl)-2,2-dimethyl-1,2,3,4-tetrahydronaphthalen-1-yl)carbamate]
IC50 [1]: 0.97 nM
IC50 (GM1 production; Homo sapiens, Jurkat, 72 h): 1.43 nM

COc1cc(-c2ccc3c(c2)CCC(C)(C)C3NC(=O)O[C@@H]2CN3CCC2CC3)ccc1Cl (stereo partly drawn) [Example 124, (S)-quinuclidin-3-yl (6-(4-chloro-3-methoxyphenyl)-2,2-dimethyl-1,2,3,4-tetrahydronaphthalen-1-yl)carbamate]
IC50 [1]: 1.6 nM
IC50 (GM1 production; Homo sapiens, Jurkat, 72 h): 3.35 nM

COc1ccc(Cl)c(-c2ccc3c(c2)CCC(C)(C)C3NC(=O)O[C@@H]2CN3CCC2CC3)c1 (stereo partly drawn) [Example 125, (S)-quinuclidin-3-yl (6-(2-chloro-5-methoxyphenyl)-2,2-dimethyl-1,2,3,4-tetrahydronaphthalen-1-yl)carbamate]
IC50 [1]: 1.1 nM
IC50 (GM1 production; Homo sapiens, Jurkat, 72 h): 2.04 nM

COc1ccc(-c2ccc3c(c2)CCC(C)(C)C3NC(=O)O[C@@H]2CN3CCC2CC3)cc1F (stereo partly drawn) [Example 126, (S)-quinuclidin-3-yl (6-(3-fluoro-4-methoxyphenyl)-2,2-dimethyl-1,2,3,4-tetrahydronaphthalen-1-yl)carbamate]
IC50 [1]: 0.83 nM
IC50 (GM1 production; Homo sapiens, Jurkat, 72 h): 1.89 nM

CCc1cccc(-c2ccc3c(c2)CCC(C)(C)C3NC(=O)O[C@@H]2CN3CCC2CC3)c1 (stereo partly drawn) [Example 127, (S)-quinuclidin-3-yl (6-(3-ethylphenyl)-2,2-dimethyl-1,2,3,4-tetrahydronaphthalen-1-yl)carbamate]
IC50 [1]: 1.92 nM
IC50 (GM1 production; Homo sapiens, Jurkat, 72 h): 2 nM

CC(C)(C)c1cccc(-c2ccc3c(c2)CCC(C)(C)C3NC(=O)O[C@@H]2CN3CCC2CC3)c1 (stereo partly drawn) [Example 128, (S)-quinuclidin-3-yl (6-(3-(tert-butyl)phenyl)-2,2-dimethyl-1,2,3,4-tetrahydronaphthalen-1-yl)carbamate]
IC50 [1]: 2.84 nM
IC50 (GM1 production; Homo sapiens, Jurkat, 72 h): 1.3 nM

CC(C)c1cccc(-c2ccc3c(c2)CCC(C)(C)C3NC(=O)O[C@@H]2CN3CCC2CC3)c1 (stereo partly drawn) [Example 129, (S)-quinuclidin-3-yl (6-(3-isopropylphenyl)-2,2-dimethyl-1,2,3,4-tetrahydronaphthalen-1-yl)carbamate]
IC50 [1]: 2.08 nM
IC50 (GM1 production; Homo sapiens, Jurkat, 72 h): 1.3 nM
